The subject of one series is COS-7 chloride channel. Briefly: Selectivity patch clamp, native chloride channels in COS-7 cells. It counts as cell-based, African green monkey. The settings on record: native chloride channel of COS-7 cells. How it is done:
Electrophysiological experiments were carried out in the whole-cell configuration of the patch-clamp technique using an EPC-9 amplifier (HEKA Elektronik, Lambrecht Germany) interfaced to a computer running acquisition and analysis software (Pulse and Pulsfit; HEKA Elektronik). Pipettes were pulled from soft glass capillaries, coated with Sylgard (Dow-Corning, Midland, Mich.), and fire polished to resistances of 2.0–4.5 MΩ measured in the bath. COS-7 cells were trypsinized and plated on glass coverslips 3 h before measurement. […] To prevent activation of the native chloride channels in COS-7 cells an aspartate Ringer solution was used as an external solution (160 mM Na^+ aspartate, 4.5 mM KCl, 2 mM CaCl2, 1 mM MgCl2, 5 mM HEPES, adjusted to pH 7.4 with NaOH, with an osmolarity of 290–310 mosM). 200 ms voltage ramps from −120 mV to 40 mV every 10 s were used. The holding potential in all experiments was −80 mV. Series resistance compensation was not employed. The reduction of slope conductance at −80 mV was used to determine the Kd-value by fitting the values to the Hill equation with a Hill coefficient of unity.
(§1) Recordings from the Jurkat SKCa channel were made in K^+ aspartate Ringer (Na^+ was replaced by K^+) with the same internal pipette solution. […]

The target in a further series is Jurkat-CRAC. Nature of the series: Selectivity patch clamp, Jurkat CRAC channels. The settings on record: monovalent currents with Na+ as charge carrier. It counts as cell-based, human. How it is done:
(§2) L929 cells stably expressing mKv1.1, rKv1.2, mKv1.3, and mKv3.1 and MEL cells stably expressing hKv1.5 have been previously described (Grissmer 1994, Mol. Pharmacol. 45: 1227). hKv1.4 and rKv4.2 were stably expressed in LTK (HK1–7). Channel expression was induced 8–12 h before the electrophysiological experiments by 4 μM dexamethasone (Sigma). HEK-293 cells stably expressing the skeletal muscle sodium channel hSkM1 (SCN4A) were generated in the laboratory of Dr. F. Lehmann-Horn. HEK-293 cells stably expressing hSloα were obtained from Dr. Andrew Tinker (Center for Clinical Pharmacology, University College London). L929, MEL, LTK and HEK cells were maintained in DMEM containing 10% heat-inactivated fetal calf serum (Summit Biotechnology, Fort Collins, Colo.) and 250 μg/ml G418 (Life Technologies, Inc.). Rat basophilic leukemia (RBL) cells were maintained in Eagle's minimum essential medium with 2 mM L-glutamine and 10% fetal calf serum. CHO cell were maintained in F12K media (ATCC). Human leukemic Jurkat E6–1 cells were cultured in RPMI 1640 supplemented with 10% fetal calf serum and 1 mM L-glutamine. T84 cells were maintained in a 1:1 mixture of Ham's F12 medium and DMEM with 2.5 mM L-glutamine and 10% fetal calf serum.
as §1

Another series has as its target T1, mKv3.1 (Mus musculus, UniProt P15388).
T1 construct: expressed in transfected cells; host or cells: L929
Briefly: Selectivity patch clamp, L929 cells expressing mKv3.1. It is filed as cell-based. Here is the method:
as §2, §1

The target in the next series is CYP3A4 (Homo sapiens, UniProt P08684). Nature of the series: in vitro. Conditions: human. How it is done: (§3) The test substances shown in Table 8 were evaluated for their inhibitory effect on the catalytic activity of human cytochrome P450 enzyme. Cytochrome P450 3A4 (CYP3A4) is involved in many drug-drug interactions and in many other pathways in the body including the catabolism of steroids and xenobiotics. Inhibition of this enzyme was measured in 96 well plates with 7-benzyloxy-4-trifluoro-methylcoumarin (BFC) as the substrate and cDNA-derived enzymes in microsomes prepared from baculovirus-infected insect cells.
CYP3A4, sequence (P08684 whole entry): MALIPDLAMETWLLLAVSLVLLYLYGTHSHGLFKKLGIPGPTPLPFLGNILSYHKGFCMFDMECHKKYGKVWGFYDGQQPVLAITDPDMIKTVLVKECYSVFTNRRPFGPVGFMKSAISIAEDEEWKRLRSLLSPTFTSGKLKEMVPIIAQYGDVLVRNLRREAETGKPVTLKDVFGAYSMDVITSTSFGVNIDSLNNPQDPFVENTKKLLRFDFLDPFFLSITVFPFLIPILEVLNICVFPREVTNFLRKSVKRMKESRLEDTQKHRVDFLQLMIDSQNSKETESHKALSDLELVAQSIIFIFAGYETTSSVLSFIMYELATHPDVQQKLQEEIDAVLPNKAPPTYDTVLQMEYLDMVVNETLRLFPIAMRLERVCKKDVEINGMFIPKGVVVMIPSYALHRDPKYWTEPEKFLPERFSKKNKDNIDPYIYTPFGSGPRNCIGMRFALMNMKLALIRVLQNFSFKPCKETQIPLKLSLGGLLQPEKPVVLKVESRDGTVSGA
(§4) The inhibition study consisted of the determination of inhibition by the test substance on CYP3A4 catalytic activity. […] The compounds were prepared as 10 mM stock solutions in acetonitrile. Metabolism of the model substrate was assayed by the production of 7-hydroxy-4-trifluoromethylcoumarin metabolite. The metabolite was detected by fluorescence.
(§5) Table 10 below provides a list of the name of enzymes examined, the catalog number of the microsomes used as a source of the enzyme, the concentration of the model substrate used, the amount of enzyme used, the final buffer concentration, and the positive control compound.
(§6) Assays were conducted in 96 well microtiter plates. The BFC substrate was initially prepared in acetonitrile. […] Six wells were used for one test. […] For the positive controls, 12 wells in a row were used for one test. The positive control inhibitor/enzyme combination was examined in duplicate rows. Wells 1 to 8 contained serial 1:3 dilutions of the inhibitors. The highest inhibitor concentration were as described in the table above. Wells 9 and 10 contained no inhibitor and wells 11 and 12 were blanks for background fluorescence (stop solution added before the enzyme).
(§7) After buffer, cofactors and inhibitor addition, the plates were pre-warmed to 37° C. Incubations were initiated by the addition of pre-warmed enzyme and substrate. The final cofactor concentrations were 1.3 mM NADP, 3.3 mM glucose-6-phosphate and 0.4 U/ml glucose-6-phosphate dehydrogenase. The final incubation volume was 0.2 ml. Incubations were carried out for 30 minutes [CYP3A4 (BFC)] and stopped by the addition of 0.075 ml of 80% acetonitrile-20% 0.5M Tris. Fluorescence per well was measured using a BMG FLUOstar fluorescence plate reader. The BFC metabolite 7-hydroxy-4-trifluoromethyl-coumarin was measured using an excitation wavelength of 410 nm and emission wavelength of 538 nm.

Series [1] concerns the target human cytochrome P450 3A4 (CYP3A4) (Homo sapiens, UniProt P08684). Briefly: in vitro. How it is done:
as §3, §4, §5, §6, §7

The next series deals with NGP cells. Nature of the series: In vitro toxicity, propidium iodide uptake, 48 h. It is filed as cell-based, human. Here is the method: (§8) The in vitro toxicity was performed as follows.
The next series relates to C2F3 cells. Nature of the series: In vitro toxicity, propidium iodide uptake, 48 h. It counts as cell-based, human. Here is the method: as §8
Another series relates to NLF cells. Briefly: In vitro toxicity, propidium iodide uptake, 48 h. It is filed as cell-based, human. How it is done:
as §8

The test system of a further series is Jurkat E6-1 cells. Nature of the series: In vitro toxicity, propidium iodide uptake, 48 h. It is filed as cell-based, human. How it is done: as §8
The next series has as its system RBL-2H3 cells. Nature of the series: In vitro toxicity, propidium iodide uptake, 48 h. It is filed as cell-based, rat. Here is the method:
as §8

SMILES strings stand for the structures.

human cytochrome P450 3A4 (CYP3A4), sequence (P08684 whole entry): as above
T1 sequence (P15388 whole entry): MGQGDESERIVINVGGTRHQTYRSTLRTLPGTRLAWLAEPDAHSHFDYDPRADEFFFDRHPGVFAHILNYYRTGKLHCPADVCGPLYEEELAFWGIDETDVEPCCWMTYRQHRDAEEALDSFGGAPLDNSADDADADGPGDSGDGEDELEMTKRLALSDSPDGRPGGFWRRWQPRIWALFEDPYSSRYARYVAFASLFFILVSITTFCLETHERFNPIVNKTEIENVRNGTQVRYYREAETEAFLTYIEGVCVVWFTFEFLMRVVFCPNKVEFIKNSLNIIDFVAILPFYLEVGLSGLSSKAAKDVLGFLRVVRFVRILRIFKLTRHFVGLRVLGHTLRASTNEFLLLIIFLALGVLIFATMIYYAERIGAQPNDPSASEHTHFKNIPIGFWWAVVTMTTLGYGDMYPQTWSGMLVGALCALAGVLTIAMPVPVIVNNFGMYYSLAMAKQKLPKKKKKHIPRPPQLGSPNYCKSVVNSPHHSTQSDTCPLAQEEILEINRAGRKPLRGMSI

For the compound `Clc1ccccc1C(c1ccccc1)(c1ccccc1)n1cccn1` [Compound T34, 1-[(2-Chlorophenyl)diphenylmethyl]-1H-pyrazole], the “Block of COS-7 (Cl)” value in the series with COS-7 chloride channel is on record as “no effect at 10 μM”. On Jurkat-CRAC, the “Block of Jurkat-CRAC (Ca)” value is “no effect at 10 μM”. Also, the Kd at mKv3.1 was determined as 30 ± 5 µM. In addition, the inhibition at 30 min, 10 μM at CYP3A4 is -77.5%. In [1] (T34 tested up to 10 μM), the “EC50 for inhibition of CYP3A4” value is recorded as “No inhibitory”. Also, in series [1] (up to 10 μM), the “Inhibition of CYP3A4 activity” value was “does not inhibit the activity of CYP3A4”. Moreover, the “percentage of dead cells (PI uptake)” value came to 10.9% in the series on NGP cells (2 μM); 5.9% in the series with NGP cells (5 μM); 15.8% in the series on C2F3 cells (2 μM); 12.8% in the series with C2F3 cells (5 μM); 10.8% with NLF cells (2 μM); 10.8% in the series with NLF cells (5 μM). Also, the “percentage of dead cells (PI uptake)” value with Jurkat E6-1 cells (2 μM) is 2.5%; in the series on Jurkat E6-1 cells (5 μM) it was 3.2%; in the series on RBL-2H3 cells (2 μM) it was 7.9%; in the series on RBL-2H3 cells (5 μM), 8.8%.

For the origin of these results see patent US7235577B1 (priority 2000, dated 2007).
